{"source": "patent US20250319024A1", "about": "“TARGETED NANOPARTICLES AND THEIR USES RELATED TO INFECTIOUS DISEASE” (priority 2021, published 2025)", "key": {"T. gondii": {"system": "T. gondii", "conditions": "200 mg/kg per day for 10 days, previous studies; cited from earlier work"}, "M. tuberculosis": {"system": "M. tuberculosis", "conditions": "literature; cited from earlier work"}, "[1]": {"system": "C. albicans, A. fumigatus, C. neoformans", "assay": "Liposome binding, summary statements over all three fungal species"}}}
{"molecule": "CC[C@H]1OC(=O)[C@H](C)[C@@H](O[C@H]2C[C@@](C)(OC)[C@@H](O)[C@H](C)O2)[C@H](C)[C@@H](O[C@@H]2O[C@H](C)C[C@H](N(C)C)[C@H]2O)[C@](C)(O)C[C@@H](C)CN(C)[C@H](C)[C@@H](O)[C@]1(C)O", "note": "[Free AZI, Azithromycin]", "values": [{"measurement": "mouse survival", "setting": "T. gondii", "value": 100, "unit": "%"}]}
{"molecule": "CO[C@H]1/C=C/O[C@@]2(C)Oc3c(C)c(O)c4c(O)c(c(/C=N/N5CCN(C)CC5)c(O)c4c3C2=O)NC(=O)/C(C)=C\\C=C\\[C@H](C)[C@H](O)[C@@H](C)[C@@H](O)[C@@H](C)[C@H](OC(C)=O)[C@@H]1C", "note": "[free RIF, rifampin]", "values": [{"measurement": "doses reported to control murine infections", "setting": "M. tuberculosis", "value": "~10", "unit": "mg/kg/day"}]}
{"molecule": "DCS12: recombinant human DC-SIGN isoform, CRD fused to neck repeats 1 and 2, SEQ ID NO: 12 (protein) MAHHHHHHYGTGSGKGKGSGSGQSRQDAIYQNLTQLKAAVGELSEKSKLQEIYQELTQLKAAVERLCHPCPWEWTFFQGNCYFMSNSQRNWHDSITACKEVGAQLVVIKSAEEQNFLQLQSSRSNRFTWMGLSDLNQEGTWQWVDGSPLLPSFKQYWNRGEPNNVGEEDCAEFSGNGWNDDKCNLAKFWICKKSAASCSRDEEQFLSPAPATPNPPPA", "values": [{"measurement": "bound more efficiently than untargeted AmB-LLs or BSA-AmB-LLs", "setting": "[1]", "value": "more than an order of magnitude"}]}
